Source: publication PMC10251843 (Animals : an Open Access Journal from MDPI, 2023)
Marks after values point to notes of the source that are not given here.

Key:
Details in all cases: mean ± SD
plasma protein [1] = assay: Plasma protein binding ratio (PPBR) by ultrafiltration, largemouth bass plasma; assay type: in vitro ADME, largemouth bass (Micropterus salmoides)
Method: (§1) The detailed procedures and the pretreatment of the ultrafiltration unit (UFU) were in line with the previous reports. In brief, the nonspecific absorption (NSB) of UFU was first checked before and after pretreatment of 5% Tween 80. […] Firstly, 100 μL of the sample was used to evaluate the initial concentration before centrifugation. […] To reduce the NSB of UFU, 100 μL of 5% Tween 80 was used to treat UFU at 25 °C for 5 min, and 0.5 mL of physiological saline was used to wash off Tween 80. The NSB of UFU was repeatedly determined again in light of the above-mentioned method.
(§2) The samples of sterile physiological saline were detected without extraction by HPLC. As for the samples of plasma, 0.1 mL of plasma was decanted into a 10 mL centrifugation tube. The extraction method is the same as the reported literature.
(§3) The proportion of the mobile phase was 82:18 (water containing 0.2% formic acid and pure acetonitrile, v/v), following the flow rate of 0.8 mL/min. The excitation wavelength was 280 nm. The emission wavelength was 450 nm.

plasma protein [2] = assay: Plasma protein binding ratio (PPBR) by ultrafiltration, grass carp plasma; assay type: in vitro ADME, grass carp (Ctenopharyngodon idella)
Method: as §1, §2, §3

plasma protein [3] = assay: Plasma protein binding ratio (PPBR) by ultrafiltration, yellow catfish plasma; assay type: in vitro ADME, yellow catfish (Pelteobagrus fulvidraco)
Method: as §1, §2, §3

[4] = 1 μg/mL, 15 °C, n = 3, listed as EF
[5] = 5 μg/mL, 15 °C, n = 3, listed as Enrofloxacin
[6] = 5 μg/mL, 20 °C, n = 3, listed as Enrofloxacin
[7] = 10 μg/mL, 15 °C, n = 3, listed as EF
[8] = 10 μg/mL, 15 °C, n = 3, listed as Enrofloxacin
[9] = 10 μg/mL, 20 °C, n = 3, listed as Enrofloxacin
[10] = 10 μg/mL, 25 °C, n = 3, listed as Enrofloxacin
[11] = 1 μg/mL, 25 °C, n = 3, listed as Enrofloxacin
[12] = 5 μg/mL, 25 °C, n = 3, listed as Enrofloxacin

PPBRs (%) (plasma protein [1]; 1 μg/mL, 15 °C, n = 3): 35.11 ± 5.18 ^a %
PPBRs (%) (plasma protein [1]; [4]): 35.11%
PPBRs (%) (plasma protein [1]; 1 μg/mL, 20 °C, n = 3): 37.93 ± 6.11 ^a %
PPBRs (%) (plasma protein [1]; 1 μg/mL, 25 °C, n = 3): 39.12 ± 1.72 ^a %
PPBRs (%) (plasma protein [1]; 5 μg/mL, 15 °C, n = 3): 14.39 ± 0.61 ^b %
PPBRs (%) (plasma protein [1]; [5]): 14.39 ± 0.61 ^a %
PPBRs (%) (plasma protein [1]; 5 μg/mL, 20 °C, n = 3): 17.46 ± 2.82 ^b %
PPBRs (%) (plasma protein [1]; [6]): 17.46 ± 2.82 ^ab %
PPBRs (%) (plasma protein [1]; 5 μg/mL, 25 °C, n = 3): 23.20 ± 5.87 ^b %
PPBRs (%) (plasma protein [1]; 10 μg/mL, 15 °C, n = 3): 9.30 ± 5.15 ^C %
PPBRs (%) (plasma protein [1]; [7]): 9.30%
PPBRs (%) (plasma protein [1]; [8]): 9.30 ± 5.15 ^a %
PPBRs (%) (plasma protein [1]; 10 μg/mL, 20 °C, n = 3): 10.84 ± 1.08 ^C %
PPBRs (%) (plasma protein [1]; [9]): 10.84 ± 1.08 ^a %
PPBRs (%) (plasma protein [1]; 10 μg/mL, 25 °C, n = 3): 7.77 ± 2.10 ^C %
PPBRs (%) (plasma protein [1]; [10]): 7.77 ± 2.10 ^a %
PPBRs (%) (plasma protein [2]; 1 μg/mL, 15 °C, n = 3): 60.52 ± 0.99 ^a %
PPBRs (%) (plasma protein [2]; [4]): 60.52%
PPBRs (%) (plasma protein [2]; 1 μg/mL, 20 °C, n = 3): 51.27 ± 1.56 ^a %
PPBRs (%) (plasma protein [2]; 1 μg/mL, 20 °C, n = 3, listed as Enrofloxacin): 51.27 ± 1.56 ^b %
PPBRs (%) (plasma protein [2]; 1 μg/mL, 25 °C, n = 3): 50.09 ± 2.06 ^a %
PPBRs (%) (plasma protein [2]; [11]): 50.09 ± 2.06 ^b %
PPBRs (%) (plasma protein [2]; 5 μg/mL, 15 °C, n = 3): 33.77 ± 0.07 ^B %
PPBRs (%) (plasma protein [2]; [5]): 33.77 ± 0.07 ^a %
PPBRs (%) (plasma protein [2]; 5 μg/mL, 20 °C, n = 3): 22.07 ± 1.19 ^B %
PPBRs (%) (plasma protein [2]; 5 μg/mL, 25 °C, n = 3): 23.36 ± 3.86 ^B %
PPBRs (%) (plasma protein [2]; [12]): 23.36 ± 3.86 ^a %
PPBRs (%) (plasma protein [2]; 10 μg/mL, 15 °C, n = 3): 16.95 ± 1.81 ^C %
PPBRs (%) (plasma protein [2]; [7]): 16.95%
PPBRs (%) (plasma protein [2]; [8]): 16.95 ± 1.81 ^a %
PPBRs (%) (plasma protein [2]; 10 μg/mL, 20 °C, n = 3): 8.34 ± 2.29 ^C %
PPBRs (%) (plasma protein [2]; [9]): 8.34 ± 2.29 ^b %
PPBRs (%) (plasma protein [2]; 10 μg/mL, 25 °C, n = 3): 5.52 ± 1.99 ^C %
PPBRs (%) (plasma protein [2]; [10]): 5.52 ± 1.99 ^B %
PPBRs (%) (plasma protein [3]; 1 μg/mL, 20 °C, n = 3): 46.10 ± 3.13 ^a %
PPBRs (%) (plasma protein [3]; 1 μg/mL, 20 °C, n = 3, listed as EF): 46.10%
PPBRs (%) (plasma protein [3]; 1 μg/mL, 25 °C, n = 3): 43.90 ± 3.62 ^a %
PPBRs (%) (plasma protein [3]; 1 μg/mL, 25 °C, n = 3, listed as EF): 43.9%
PPBRs (%) (plasma protein [3]; [11]): 43.90 ± 3.62 ^ab %
PPBRs (%) (plasma protein [3]; 5 μg/mL, 15 °C, n = 3): 22.53 ± 6.86 ^b %
PPBRs (%) (plasma protein [3]; 5 μg/mL, 15 °C, n = 3, listed as EF): 22.53%
PPBRs (%) (plasma protein [3]; [5]): 22.53 ± 6.86 ^a %
PPBRs (%) (plasma protein [3]; 5 μg/mL, 20 °C, n = 3): 21.24 ± 6.93 ^b %
PPBRs (%) (plasma protein [3]; [6]): 21.24 ± 6.93 ^a %
PPBRs (%) (plasma protein [3]; 5 μg/mL, 25 °C, n = 3): 17.29 ± 0.69 ^b %
PPBRs (%) (plasma protein [3]; 5 μg/mL, 25 °C, n = 3, listed as EF): 17.29%
PPBRs (%) (plasma protein [3]; [12]): 17.29 ± 0.69 ^a %
PPBRs (%) (plasma protein [3]; 10 μg/mL, 15 °C, n = 3): 9.66 ± 4.09 ^c %
PPBRs (%) (plasma protein [3]; [7]): 9.66%
PPBRs (%) (plasma protein [3]; [8]): 9.66 ± 4.09 ^ab %
PPBRs (%) (plasma protein [3]; 10 μg/mL, 20 °C, n = 3): 13.52 ± 4.74 ^b %
PPBRs (%) (plasma protein [3]; 10 μg/mL, 20 °C, n = 3, listed as EF): 13.52%
PPBRs (%) (plasma protein [3]; [9]): 13.52 ± 4.74 ^a %
PPBRs (%) (plasma protein [3]; 10 μg/mL, 25 °C, n = 3): 4.36 ± 0.58 ^c %
PPBRs (%) (plasma protein [3]; 10 μg/mL, 25 °C, n = 3, listed as EF): 4.36%
PPBRs (%) (plasma protein [3]; [10]): 4.36 ± 0.58 ^b %
Structure (SMILES): CCN1CCN(c2cc3c(cc2F)c(=O)c(C(=O)O)cn3C2CC2)CC1 [Enrofloxacin (EF), Enrofloxacin]
